Assay results: patent US11879137B2, “Treatment of type 1 diabetes and autoimmune diseases or disorders” (THE CHILDREN'S MEDICAL CENTER CORPORATION, priority 2017, dated 2024)

Test system: CD34+ cells
Experiment: qRT-PCR of PD-L1, CXCR4 and IDO-1 in prostaglandin-modulated CD34+ cells
Format: cell-based, human
Conditions: for PD-L1 mRNA expression by RT-PCR: CD34+ cells upon modulation
Experimental: qRT-PCR. RNA was extracted from CD34+ cells using Direct-Zol™ RNA Kits (Zymo, Irvine, CA, USA) and Trizol Reagent (Invitrogen Carlsbad, CA), RNA quality was assessed by Multiskan™ GO Microplate spectrophotometer and the ratios of absorbance at 260 nm and 280 nm were assessed for all the samples. Only samples with RNA ratios within 1.9 were included in the present study. cDNA synthesis was made from purified total RNA by reverse transcription using High capacity cDNA Reverse Transcription RETROscript® Kit (Thermo Fisher Scientific, Waltham, MA, USA) followed by a pre-amplification using Taqman PreAmp Kit (Applied Biosystems) according to the manufacturer's instructions. qRT-PCR analysis was performed using TaqMan assays (Life Technologies, Grand Island, NY) containing PCR primers and TaqMan probes according to the manufacturer's instructions. Normalized expression values were determined using the ΔCt method. Quantitative reverse transcriptase polymerase chain reaction (qRT-PCR) data were normalized for the expression of GAPDH. qRT-PCR reactions were performed in triplicate in a 96-well format using an Applied Biosystems 7900HT fast real-time PCR instrument. Relative expression was calculated using the comparative threshold cycle method as previously described (23, 24). For two-group comparisons, a Student's t test was employed. Reported below are the main characteristics of the primers used: […]
Prostaglandin library screening. PGE2 has been described as a small molecule known to enhance the homing and engraftment of HSPCs. It was therefore sought to screen all known types of prostaglandins using the Prostaglandin Screening Library II, which contains 64 small molecules. Each small molecule contained in the library was first screened for its capacity to upregulate PD-L1 in human CD34+ cells isolated from T1D patients (FIG. 17A-17B). CD34+ cells isolated from T1D patients were cultured in StemSpan SFEMII and pulsed with each PG (prostaglandin) small molecule contained in the aforementioned library at a concentration of 10 μM at 24 and 48h. Using FACS analysis, the MFI (mean fluorescence intensity) of PD-L1 expression was calculated following treatment with each small molecule used to modulate CD34+ cells as compared to untreated/unmodulated CD34+ cells (FIG. 17B). A heat map was generated depicting the degree to which each PG small molecule affected PD-L1 expression on CD34+ cells (FIG. 17B), thus allowing for the evaluation of PG candidates. Based on its ability to modulate PD-L1 expression, PGE2 was selected as a candidate for further study; in addition, PGE2 has been described in the literature and has been tested in clinical trials as a potential therapy for enhancing HSPC engraftment following cord blood transplantation (21). Isolated CD34+ cells from healthy control patients (CTRL) and from T1D patients were cultured in StemSpan SFEMII and pulsed with 10 μM of PGE2 at 24 hours and 48 hours. […] It was therefore sought to perform a migration assay in order to assess the homing properties of PGE2-treated CD34+ cells (FIG. 17F).

SMILES	PD-L1 mRNA expression by RT-PCR	IDO-1 expression (mRNA) (post-pharmacologic modulation)	increase of CXCR4 gene expression by RT-PCR (vs untreated CD34+ cells) [fold]
CCCCC(C)(C)[C@H](O)/C=C/[C@H]1[C@H](O)CC(=O)[C@@H]1C/C=C\CCCC(=O)O [16,16-dimethyl PGE2]	marked upregulation		
CCCCC[C@H](O)/C=C/[C@H]1[C@H](O)CC(=O)[C@@H]1C/C=C\CCCC(=O)O [PGE2, prostaglandin E2]	slight increase	remained unchanged	2
